{"source": "paper PMC8880039", "about": "“Kinetic and Molecular Docking Studies to Determine the Effect of Inhibitors on the Activity and Structure of Fused G6PD::6PGL Protein from Trichomonas vaginalis” (Molecules, 2022)", "data": [{"target": "T1, fused TvG6PD::6PGL enzyme (Trichomonas vaginalis, UniProt A2EC78)", "T1 sequence (A2EC78 entry or part of it)": "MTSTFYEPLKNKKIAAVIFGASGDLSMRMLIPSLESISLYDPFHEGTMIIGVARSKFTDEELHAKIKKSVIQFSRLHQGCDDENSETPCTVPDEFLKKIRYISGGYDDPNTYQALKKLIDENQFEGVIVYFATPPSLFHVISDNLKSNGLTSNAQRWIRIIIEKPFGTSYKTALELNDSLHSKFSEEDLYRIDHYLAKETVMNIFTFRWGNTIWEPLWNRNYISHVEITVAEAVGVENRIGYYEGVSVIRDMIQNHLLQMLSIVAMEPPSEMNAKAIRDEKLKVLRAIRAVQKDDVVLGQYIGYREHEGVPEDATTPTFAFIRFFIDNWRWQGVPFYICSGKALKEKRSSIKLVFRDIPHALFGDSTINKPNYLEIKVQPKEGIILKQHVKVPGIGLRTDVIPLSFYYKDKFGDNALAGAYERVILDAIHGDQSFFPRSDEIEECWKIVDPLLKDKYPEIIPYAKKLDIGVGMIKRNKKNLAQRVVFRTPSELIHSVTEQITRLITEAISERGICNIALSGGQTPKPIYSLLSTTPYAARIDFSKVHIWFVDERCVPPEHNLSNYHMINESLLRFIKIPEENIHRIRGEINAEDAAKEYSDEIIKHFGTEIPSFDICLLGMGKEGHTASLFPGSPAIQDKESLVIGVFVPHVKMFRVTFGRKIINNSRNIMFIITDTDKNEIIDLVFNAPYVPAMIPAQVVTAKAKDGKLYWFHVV", "experiment": "Determination of inhibition type (double reciprocal plots)", "format": "biochemical", "settings": "G6P varied, NADP+ saturating; Lineweaver–Burk", "text": "(§1) Figure 4 Determination of inhibition type of selected compounds. Lineweaver–Burk plots for the JMM-3, CNZ-3, CNZ-17, and MCC-7 compounds with G6P (A,C,E,G) or NADP^+ (B,D,F,H) substrates. The data represent the mean ± of three independent experiments, and standard errors were lower than 5%. […] Only the inhibition type (a class) is printed as a plot label, and it is uncertain whether that counts as a result. The concentrations in the plot legends stand alone and were left out.\n(§2) To determine the inhibition mechanism of the four selected hit compounds over the T. vaginalis-fused G6PD::6PGL protein, we monitored the initial velocities in the presence of two fixed concentrations of each of the inhibitory compounds. The initial velocities were determined at different substrate concentrations (from 0 to 140 µM). […] Subsequently, the initial velocities for each physiological substrate (G6P and NADP^+) were analyzed using the double reciprocal plot method.", "values": [{"smiles": "O=C(Nc1ccc(Cl)cc1)Nc1ncc([N+](=O)[O-])s1", "note": "[CNZ-3]", "inhibition type for G6P substrate": "noncompetitive-type inhibition"}, {"smiles": "COc1ccc(NC(=O)Nc2ncc([N+](=O)[O-])s2)cc1", "note": "[CNZ-17]", "inhibition type for G6P substrate": "uncompetitive-type inhibition"}, {"smiles": "COc1cc(CCC(=O)O)ccc1OCc1ccc(-c2ccccc2C#N)cc1", "note": "[JMM-3]", "inhibition type for G6P substrate": "uncompetitive-type inhibition"}, {"smiles": "O=C(COc1ccc(/C=C2\\SC(=O)NC2=O)cc1)NC1CCN(Cc2ccccc2)CC1", "note": "[MCC-7]", "inhibition type for G6P substrate": "non-competitive-type inhibition"}]}, {"target": "T1, fused TvG6PD::6PGL enzyme", "experiment": "Determination of inhibition type (double reciprocal plots)", "format": "biochemical", "settings": "NADP+ varied, G6P saturating; Lineweaver–Burk", "text": "as §1, §2", "values": [{"smiles": "O=C(Nc1ccc(Cl)cc1)Nc1ncc([N+](=O)[O-])s1", "note": "[CNZ-3]", "inhibition type for NADP+ substrate": "competitive-type inhibition"}, {"smiles": "COc1ccc(NC(=O)Nc2ncc([N+](=O)[O-])s2)cc1", "note": "[CNZ-17]", "inhibition type for NADP+ substrate": "uncompetitive-type inhibition"}, {"smiles": "COc1cc(CCC(=O)O)ccc1OCc1ccc(-c2ccccc2C#N)cc1", "note": "[JMM-3]", "inhibition type for NADP+ substrate": "uncompetitive-type inhibition"}, {"smiles": "O=C(COc1ccc(/C=C2\\SC(=O)NC2=O)cc1)NC1CCN(Cc2ccccc2)CC1", "note": "[MCC-7]", "inhibition type for NADP+ substrate": "uncompetitive type"}]}, {"target": "T1, fused TvG6PD::6PGL enzyme", "experiment": "Time-course inactivation, second-order rate constant (k2)", "format": "biochemical", "settings": "read-out: second-order rate constant of inactivation (k2)", "description": "To determine the enzyme–inhibitor complex formation rate for each synthetic compound, we first calculated the pseudo-first-order inactivation constants (k1) by measuring the initial velocities at five fixed concentrations, at intervals between 0 and 120 min. […] We observed single-exponential decays of time-course inactivation for all the compounds examined in this study (Figure 3A,C,E,G). Additionally, as the synthetic compounds’ concentrations increased, the enzyme lost catalytic activity in a shorter incubation time; in contrast, the enzymatic activity of enzymes without compounds remained intact. The k1 values for each compound were calculated and plotted against their concentrations, and a linear behavior was obtained and fitted with the linear equation (Figure 3B,D,F,H). The calculated k2 values for JMM-3, CNZ-3, CNZ-17, and MCC-7 were: 0.33, 0.66, 0.38, and 0.26 M^−1 s^−1, respectively. It is important to mention that CNZ-3 formed the enzyme–inhibitor complex faster (k2 value of 0.66 M^−1 s^−1), regarding the CNZ-17 compound. This difference in the affinity to form the enzyme–inhibitor complex may be due to the p-chlorine moiety present in CNZ-3, unlike CNZ-17, which has a methoxy group in the same position.\nFigure 3 Inactivation of fused G6PD::6PGL enzyme by chemical compounds. […] We obtained second-order rate constant values of inactivation (k2) of each of (B) JMM-3, (D) CNZ-3, (F) CNZ-17, and (H) CCM-7 by fitting the calculated k1 value versus the concentration of the compound. […] TEXT PRINTED IN THE PICTURE: (B) JMM-3: k2= 0.33 (M^-1* s^-1) | (D) CNZ-3: k2 = 0.66 (M^-1* s^-1) | (F) CNZ-17: k2 = 0.38 (M^-1* s^-1) | (H) MCC-7: k2 = 0.26 (M^-1* s^-1) DOUBTS OF THE COPYIST ABOUT THIS PICTURE: CNZ-3, k2: small print, 0.66 could be 0.68 or 0.86 / CNZ-17, k2: small print, 0.38 could be 0.36 or 0.88 / MCC-7, k2: small print, 0.26 could be 0.28; subscript of k not clearly readable / Panels D, F, H: the sign between M^-1 and s^-1 (asterisk) is not clearly readable\nSecond-order rate constants of inactivation (k2) were used to determine the inactivation rate of a chemical compound and the formation of the enzyme–inhibitor complex. Therefore, pseudo-first-order rate constants (k1) were determined for the recombinant G6PD::6PGL, adjusted at 0.2 mg/mL, and incubated with four different fixed concentrations of each compound at 37 °C. At the indicated times, a sample was withdrawn, and the residual activity was measured. First, we calculated the pseudo-first-order rate constants (k1) by fitting the residual activities data using a monoexponential decay equation: AR=A0 e^−kt , where AR is the residual activity at time t, A0 is the activity at the initial time, and k is the pseudo-first-order inactivation constant (min^−1). […]", "units": {"kinact/KI": "M⁻¹ s⁻¹"}, "values": [{"smiles": "O=C(Nc1ccc(Cl)cc1)Nc1ncc([N+](=O)[O-])s1", "note": "[CNZ-3]", "kinact/KI": 0.66}, {"smiles": "COc1ccc(NC(=O)Nc2ncc([N+](=O)[O-])s2)cc1", "note": "[CNZ-17]", "kinact/KI": 0.38}, {"smiles": "COc1cc(CCC(=O)O)ccc1OCc1ccc(-c2ccccc2C#N)cc1", "note": "[JMM-3]", "kinact/KI": 0.33}, {"smiles": "O=C(COc1ccc(/C=C2\\SC(=O)NC2=O)cc1)NC1CCN(Cc2ccccc2)CC1", "note": "[MCC-7]", "kinact/KI": 0.26}]}, {"target": "T1, fused TvG6PD::6PGL enzyme", "experiment": "Screening of in-house library for inhibition of fused TvG6PD::6PGL catalytic activity", "format": "biochemical", "settings": "read-out: G6PD::6PGL Inhibition (%), compound 400 μM, 0.2 mg/mL enzyme, 2 h at 37 °C", "text": "(§3) Here, we tested an in-house library of 55 compounds with some structural similarity to the previously reported molecules by Preuss et al.. […] In addition, we tested these synthetic compounds as potential recombinant human G6PD (HsG6PD) protein inhibitors. We observed that synthetic compounds, such as JMM-2, CNZ-3, CNZ-7, and CNZ-8, inhibited the fused TvG6PD::6PGL and the HsG6PD enzymes. For example, JMM-2 inhibited both enzymes by 81%, and CNZ-3 inhibited their catalytic activity by around 90%. Conversely, six of them, JMM-3, CNZ-16, CNZ-17, MCC-7, CMC-1, and TDA-5, inhibited the fused TvG6PD::6PGL enzyme activity in a more significant proportion regarding HsG6PD. […] The selective inhibition over the fused TvG6PD::6PGL enzyme may help improve the rational design of new drugs against this parasite without affecting the activity of HsG6PD.\nWe tested an in-house library of 55 chemical compounds synthesized in the Medicinal Chemistry Laboratory from Facultad de Farmacia, Universidad Autónoma del Estado de Morelos. In-house libraries are advantageous in the discovery of novel bioactive small molecules. […] Subsequently, the residual activity was measured using a standard reaction mixture (1 mM G6P, 0.2 mM NADP^+, 0.1 mM Tris-HCl, and one mM MgCl2, pH 8.0). […]", "units": {"inhibition at 400 µM": "%"}, "values": [{"smiles": "COc1ccc(NC(=O)Nc2ncc([N+](=O)[O-])s2)cc1", "note": "[CNZ-17]", "inhibition at 400 µM": "> 50"}, {"smiles": "COc1cc(CCC(=O)O)ccc1OCc1ccc(-c2ccccc2C#N)cc1", "note": "[JMM-3]", "inhibition at 400 µM": "> 50"}]}, {"target": "T1, fused TvG6PD::6PGL enzyme", "experiment": "Orthogonal assay: IC50 by residual activity of TvG6PD::6PGL", "format": "biochemical", "settings": "not given", "description": "Figure 2 Inactivation of the TvG6PD::6PGL enzyme with CNZ-3, MCC-7, JMM-3, and CNZ-17. The protein was adjusted at 0.2 mg/mL and incubated with increasing concentrations of each compound (0–800 μM) for 2 h at 37 °C. The IC50 values were determined by plotting the residual activity of the fused TvG6PD::6PGL enzyme versus compound concentrations. The assays were carried out in triplicate, and the data represent the mean ± standard error.\nThe compound concentration at which the enzyme loses 50% of its initial activity (IC50) was determined according to Hernández-Ochoa et al.. The G6PD::6PGL protein was adjusted to a 0.2 mg/mL concentration and incubated for 2 h at 37 °C, with increasing concentrations from 0 to 800 µM of the selected synthetic hit compounds. Then, the residual activity was measured, as mentioned above.", "units": {"IC50": "µM"}, "values": [{"smiles": "O=C(Nc1ccc(Cl)cc1)Nc1ncc([N+](=O)[O-])s1", "note": "[CNZ-3]", "IC50": 93}, {"smiles": "COc1ccc(NC(=O)Nc2ncc([N+](=O)[O-])s2)cc1", "note": "[CNZ-17]", "IC50": 356}, {"smiles": "COc1cc(CCC(=O)O)ccc1OCc1ccc(-c2ccccc2C#N)cc1", "note": "[JMM-3]", "IC50": 155}, {"smiles": "O=C(COc1ccc(/C=C2\\SC(=O)NC2=O)cc1)NC1CCN(Cc2ccccc2)CC1", "note": "[MCC-7]", "IC50": 260}]}, {"target": "recombinant human G6PD (HsG6PD) (Homo sapiens, UniProt P11413)", "sequence (P11413 whole entry)": "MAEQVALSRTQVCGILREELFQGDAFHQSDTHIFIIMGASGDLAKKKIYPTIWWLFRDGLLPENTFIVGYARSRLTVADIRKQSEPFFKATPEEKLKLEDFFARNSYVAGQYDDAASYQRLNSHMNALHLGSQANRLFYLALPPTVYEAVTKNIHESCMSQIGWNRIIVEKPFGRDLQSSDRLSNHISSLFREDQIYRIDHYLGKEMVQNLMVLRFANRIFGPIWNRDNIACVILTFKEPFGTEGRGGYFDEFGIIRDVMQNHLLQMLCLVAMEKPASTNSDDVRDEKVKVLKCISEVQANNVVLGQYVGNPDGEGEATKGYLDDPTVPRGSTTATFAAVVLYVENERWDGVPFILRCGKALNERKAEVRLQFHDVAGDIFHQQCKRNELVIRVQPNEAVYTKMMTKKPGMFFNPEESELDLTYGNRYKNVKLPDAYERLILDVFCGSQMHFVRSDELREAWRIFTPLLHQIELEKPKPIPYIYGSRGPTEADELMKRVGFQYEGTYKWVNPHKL", "experiment": "Inhibition of recombinant human G6PD by the selected compounds", "format": "biochemical", "settings": "compound 400 μM", "text": "as §3", "units": {"inhibition at 400 µM": "%"}, "values": [{"smiles": "O=C(Nc1ccc(Cl)cc1)Nc1ncc([N+](=O)[O-])s1", "note": "[CNZ-3]", "inhibition at 400 µM": "~90"}, {"smiles": "COc1ccc(NC(=O)Nc2ncc([N+](=O)[O-])s2)cc1", "note": "[CNZ-17]", "inhibition at 400 µM": 0}, {"smiles": "O=C(COc1ccc(/C=C2\\SC(=O)NC2=O)cc1)NC1CCN(Cc2ccccc2)CC1", "note": "[MCC-7]", "inhibition at 400 µM": 11}]}]}
